Experimental data published in patent publication US9314468B2, “Chemokine receptor modulators” (Altiris Therapeutics, Inc., priority 2008, dated 2016).

These compounds were tested against CXCR4 (Homo sapiens (Human), UniProt P61073) (assay: Functional calcium mobilization assay (SDF-1α induced)). Settings: CCRF-CEM, read-out: % inhibition at 1 μM.
Type: cell-based
Method: Functional modulation of CXCR4 was determined by calcium mobilization assay using leukemic lymphoid CEM cells, which naturally express high levels of CXCR4. Generally, the assay is carried out as follows: Cells are grown in vitro to confluency. On the day of the assay, cells are removed from the incubator, culture medium removed and replaced with a calcium sensitive dye (Calcium3 assay kit; Molecular Devices, Sunnyvale, Calif.). The cells are allowed to dye load for 45-60 min at 37° C. in the cell culture incubator and then allowed to equilibrate to room temperature for no more than 15 min before assay.
Compound plates were generated containing up to 3% dimethyl sulfoxide in media kept at room temperature. Test compounds were added to the cells at a 1:3 dilution, and calcium mobilization was measured using a Flex Station fluorescence imager (Molecular Devices). This first read was used to determine direct agonist activation of the CXCR4 receptor by the test compounds. […] Full dose response curves were generated daily for SDF-1a to calculate IC50 concentrations. The IC50 values are reported. In cases, where one was not determined, a percent inhibition at the 1 μM concentration was extrapolated.
Functional calcium mobilization assay was conducted as described in Example 27.

CXCR4, sequence (P61073 whole entry): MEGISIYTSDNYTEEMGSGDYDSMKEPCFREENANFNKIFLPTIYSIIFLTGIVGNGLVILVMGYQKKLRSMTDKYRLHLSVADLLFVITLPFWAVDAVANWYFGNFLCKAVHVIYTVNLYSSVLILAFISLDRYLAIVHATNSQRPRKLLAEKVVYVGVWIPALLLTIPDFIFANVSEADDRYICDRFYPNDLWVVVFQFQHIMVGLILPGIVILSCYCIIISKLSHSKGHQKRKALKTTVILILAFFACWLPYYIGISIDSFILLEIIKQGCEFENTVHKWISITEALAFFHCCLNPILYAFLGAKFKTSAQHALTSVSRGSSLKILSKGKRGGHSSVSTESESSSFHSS

Compound	inhibition at 1 µM [%]
OCCCCN(Cc1nccc2c1[nH]c1ccccc12)[C@H]1CCCc2cccnc21	0
O=C1CNCCN1CCCN(Cc1nccc2c3ccccc3n(CC(=O)N3CCOCC3)c12)[C@H]1CCCc2cccnc21	0
CCNC(=O)NCCCCN(Cc1nccc2c1[nH]c1ccccc12)[C@H]1CCCc2cccnc21	0
c1cnc2c(c1)CCCC2N(CCCN1CCOCC1)Cc1nccc2c1[nH]c1ccccc12 (centres unmarked)	20
c1cnc2c(c1)CCC[C@@H]2N(Cc1ccc(N2CCNCC2)cc1)Cc1nccc2c1[nH]c1ccccc12	0
O=C(NNc1ccccc1)c1ccc(CN(Cc2nccc3c2[nH]c2ccccc23)[C@H]2CCCc3cccnc32)cc1	0
c1cnc2c(c1)CCCC2N(CCN1CCNCC1)Cc1nccc2c1[nH]c1ccccc12 (centres unmarked)	0
CC(C)(C)OC(=O)[C@@H](N)CCCN(Cc1nccc2c3ccccc3n(CC(=O)N3CCOCC3)c12)[C@H]1CCCc2cccnc21	0
CN(Cc1nccc2c3ccccc3n(CCCCN3C(=O)c4ccccc4C3=O)c12)[C@H]1CCCc2cccnc21	32
CN(Cc1nccc2c3ccccc3n(Cc3cnn[nH]3)c12)[C@H]1CCCc2cccnc21	0

Now from value to compound:

inhibition at 1 µM [%]	Compound
0	CC(C)CN(Cc1nccc2c3ccccc3n(CCCN)c12)[C@H]1CCCc2cccnc21
0	NCCCCN(C(=O)c1nccc2c1[nH]c1ccccc12)C1CCCc2cccnc21 (centres unmarked)
0	c1cnc2c(c1)CCCC2N(CCCCN(CC1CC1)CC1CC1)Cc1nccc2c1[nH]c1ccccc12 (centres unmarked)
0	O=C(Cn1c2ccccc2c2ccnc(CN(Cc3ccc(CNCc4ccccn4)cc3)[C@H]3CCCc4cccnc43)c21)N1CCOCC1
0	CN(Cc1nccc2c1[nH]c1ccccc12)[C@H]1CCCc2cccnc21
18	CC(C)(C)OC(=O)CN(CCCCN(Cc1nccc2c1[nH]c1ccccc12)[C@H]1CCCc2cccnc21)CC(=O)OC(C)(C)C
1	c1cnc2c(c1)CCCC2N(CCN1CCOCC1)Cc1nccc2c1[nH]c1ccccc12 (centres unmarked)
55	c1cnc2c(c1)CCCC2N(CCC1CCNCC1)Cc1nccc2c1[nH]c1ccccc12 (centres unmarked)
0	NCC#CCN(Cc1nccc2c1[nH]c1ccccc12)[C@H]1CCCc2cccnc21
20	NC/C=C/CN(Cc1nccc2c1[nH]c1ccccc12)[C@H]1CCCc2cccnc21

Same assay, conditions: CEM cells, SDF-1α challenge at EC80-EC90; read-out: Ca Flux IC50

Compound	IC50 [µM]
CN1CCN(CCCN(Cc2nccc3c4ccccc4n(CC(=O)N4CCOCC4)c23)[C@H]2CCCc3cccnc32)CC1	0.628
CC(C)CN(Cc1nccc2c3ccccc3n(CCCN3C(=O)c4ccccc4C3=O)c12)[C@H]1CCCc2cccnc21	6.65
COCCn1c2ccccc2c2ccnc(CN(CCCN3CCNCC3)[C@H]3CCCc4cccnc43)c21	0.049
NC/C=C\CN(Cc1nccc2c1[nH]c1ccccc12)[C@H]1CCCc2cccnc21	0.949
CCNCCCCN(Cc1nccc2c1[nH]c1ccccc12)[C@H]1CCCc2cccnc21	0.699
CC(C)(C)OC(=O)Cn1c2ccccc2c2ccnc(CN(CCCN3CCNCC3)[C@H]3CCCc4cccnc43)c21 [drawing 743]	0.059
C#CCn1c2ccccc2c2ccnc(CN(CCCCN)[C@H]3CCCc4cccnc43)c21	0.009
c1cnc2c(c1)CCCC2N(CCCCNC1=NCCN1)Cc1nccc2c1[nH]c1ccccc12 (centres unmarked)	1.67
NCCCCN(Cc1nccc2c3ccccc3n(CC(=O)O)c12)[C@H]1CCCc2cccnc21 [drawing 709]	0.022
NCCCCN(Cc1nccc2c3ccccc3n(CC(=O)N3CCOCC3)c12)[C@H]1CCCc2cccnc21 [drawing 701]	0.079
COCCn1c2ccccc2c2ccnc(CN(CCCCN)[C@H]3CCCc4cccnc43)c21	0.02
N[C@H]1CC[C@H](CN(Cc2nccc3c4ccccc4n(CC(=O)N4CCOCC4)c23)[C@H]2CCCc3cccnc32)CC1	2.15
NCCCCN(Cc1nccc2c1[nH]c1cc(F)ccc12)C1CCCc2cccnc21 (centres unmarked)	0.565
c1cnc2c(c1)CCCC2N(CCCN1CCNCC1)Cc1nccc2c1[nH]c1ccccc12 (centres unmarked)	0.018
NCCCCN(Cc1nccc2c3ccccc3n(Cc3ccccc3)c12)[C@H]1CCCc2cccnc21	0.047
NCCCCN(Cc1nccc2c3ccccc3n(CCCN3CCNCC3=O)c12)[C@H]1CCCc2cccnc21	0.02
NCCCCN(Cc1nccc2c3ccccc3n(CC(=O)NC3CCOCC3)c12)[C@H]1CCCc2cccnc21	0.021
CN(C)C(=O)NCCCCN(Cc1nccc2c1[nH]c1ccccc12)C1CCCc2cccnc21 (centres unmarked)	0.038

Compound	IC50 [µM]
O=C(Cn1c2ccccc2c2ccnc(CN(CCCN3CCNCC3)[C@H]3CCCc4cccnc43)c21)N1CCOCC1	0.044
CN1CCN(C(=O)Cn2c3ccccc3c3ccnc(CN(CCCCN)[C@H]4CCCc5cccnc54)c32)CC1 [drawing 725]	0.03
CCOC(=O)Cn1c2ccccc2c2ccnc(CN(CCCCN)[C@H]3CCCc4cccnc43)c21	0.015
NCCCCN(Cc1cc2c(cn1)[nH]c1ccccc12)[C@@H]1CCCc2cccnc21	1.18
NCCCCN(Cc1nccc2c3ccccc3n(CC(=O)N3CC[S+]([O-])CC3)c12)[C@H]1CCCc2cccnc21	0.061
NCCCCN(Cc1cc2c(cn1)[nH]c1ccccc12)[C@H]1CCCc2cccnc21	0.1
NCCCn1c2ccccc2c2ccnc(CN[C@H]3CCCc4cccnc43)c21	8.89
c1cnc2c(c1)CCC[C@@H]2N(CCCN1CCNCC1)Cc1cc2c(cn1)[nH]c1ccccc12	0.331
O=C(CN(Cc1nccc2c1[nH]c1ccccc12)[C@H]1CCCc2cccnc21)N1CCNCC1	1.81
NCCCCN(Cc1nccc2c3ccccc3n(Cc3ccccn3)c12)[C@H]1CCCc2cccnc21	0.031
c1ccc(CNCCCCN(Cc2nccc3c2[nH]c2ccccc23)C2CCCc3cccnc32)nc1 (centres unmarked)	5.1
CN(Cc1nccc2c3ccccc3n(CCN)c12)[C@H]1CCCc2cccnc21	0.142
CC(C)(C)C(=O)N1CCN(CCCN(Cc2nccc3c2[nH]c2ccccc23)C2CCCc3cccnc32)CC1 (centres unmarked)	1.93
O=C(Cn1c2ccccc2c2ccnc(CN(CCCCNCc3ccncc3)[C@H]3CCCc4cccnc43)c21)N1CCOCC1	2.83
Cn1c2ccccc2c2ccnc(CN(CCCCN)[C@H]3CCCc4cccnc43)c21	0.022
O=C(Cn1c2ccccc2c2ccnc(CN(CCCCNCc3ccccn3)[C@H]3CCCc4cccnc43)c21)N1CCOCC1	8.65
N[C@H]1CC[C@@H](CN(Cc2nccc3c4ccccc4n(CC(=O)N4CCOCC4)c23)[C@H]2CCCc3cccnc32)CC1	1.26

Now from value to compound:

IC50 [µM]	Compound
0.123	C[C@@H]1CN(C(=O)Cn2c3ccccc3c3ccnc(CN(CCCCN)[C@H]4CCCc5cccnc54)c32)C[C@H](C)O1 [drawing 744]
0.017	NCCCCN(Cc1nccc2c3ccccc3n(CC(N)=O)c12)[C@H]1CCCc2cccnc21 [drawing 765]
0.12	NCCCCN(Cc1nccc2c3ccccc3n(Cc3ccncc3)c12)[C@H]1CCCc2cccnc21
0.423	CC(c1ccccn1)N(CCCCN)Cc1nccc2c3ccccc3n(CC(=O)N3CCOCC3)c12 (centres unmarked)
1.4	O=C(Cn1c2ccccc2c2ccnc(CN(CCCCNCc3cccnc3)[C@H]3CCCc4cccnc43)c21)N1CCOCC1
1.34	NCCCCN(Cc1nccc2c1[nH]c1ccccc12)[C@@H]1CCCc2cccnc21
9.59	CC(C)(C)OC(=O)[C@@H](N)CCCN(Cc1nccc2c1[nH]c1ccccc12)[C@H]1CCCc2cccnc21
0.004	NCCCCN(Cc1nccc2c3ccccc3n(CC3CC3)c12)[C@H]1CCCc2cccnc21
0.217	CN(Cc1nccc2c3ccccc3n(CCCN3C(=O)c4ccccc4C3=O)c12)[C@H]1CCCc2cccnc21
0.663	NCCCCN(Cc1nccc2c3ccccc3n(CC(=O)N3CCNCC3)c12)[C@H]1CCCc2cccnc21
0.024	c1cnc2c(c1)CCC[C@@H]2N(CCCN1CCNCC1)Cc1nccc2c3ccccc3n(CCN3CCOCC3)c12
0.138	O=C1CN(CCCN(Cc2nccc3c4ccccc4n(CCCN4C(=O)c5ccccc5C4=O)c23)[C@H]2CCCc3cccnc32)CCN1
0.044	O=C1c2ccccc2C(=O)N1CCCn1c2ccccc2c2ccnc(CN(CCCN3CCNCC3)[C@H]3CCCc4cccnc43)c21
0.152	c1ccc(Cn2c3ccccc3c3ccnc(CN(CCCN4CCNCC4)[C@H]4CCCc5cccnc54)c32)cc1
0.005	NCCCn1c2ccccc2c2ccnc(CN(CCCN3CCNCC3)[C@H]3CCCc4cccnc43)c21
0.013	NCCCCN(Cc1nccc2c3ccccc3n(CCC3CCOCC3)c12)[C@H]1CCCc2cccnc21
0.212	NCCCCN(Cc1nccc2c3ccccc3n(CC(=O)N3CCC(O)CC3)c12)[C@H]1CCCc2cccnc21
0.168	CCNCCCCN(Cc1nccc2c1[nH]c1ccccc12)C1CCCc2cccnc21 (centres unmarked)
3.73	c1ccc(N2CCNCC2)c(CN(Cc2nccc3c2[nH]c2ccccc23)[C@H]2CCCc3cccnc32)c1
1.97	NCCCCN(Cc1ccccn1)Cc1nccc2c1[nH]c1ccccc12
0.004	NCCCCN(Cc1nccc2c3ccccc3n(CCCN3CCNC(=O)C3)c12)[C@H]1CCCc2cccnc21
2.81	CC(C)(C)OC(=O)Cn1c2ccccc2c2ccnc(CN[C@H]3CCCc4cccnc43)c21
1.96	c1cnc2c(c1)CCCC2N(CCCCN1CCNCC1)Cc1nccc2c1[nH]c1ccccc12 (centres unmarked)
1.72	CC(=O)NCCCCN(Cc1nccc2c1[nH]c1ccccc12)C1CCCc2cccnc21 (centres unmarked)
4.39	NCCCCN(Cc1nccc2c3ccccc3n(CC(=O)N3CCC(N)CC3)c12)[C@H]1CCCc2cccnc21
